Like-named read-outs stand apart in the source and are kept apart here.
Legend:
[1] = target: Kir1.1 (ROMK1) (Homo sapiens (Human), UniProt P48048); experiment: Electrophysiology Assay (whole cell voltage clamp, IonWorks Quattro); type: cell-based; conditions: block during voltage step to 0 mV
How it was run: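 CHO cells stably expressing the channel, induced overnight with 1 mM sodium butyrate, were recorded in amphotericin-perforated patch mode. The test pulse was a 100 ms step to 0 mV from −70 mV, then a −70 to +70 mV ramp, applied before and after a 6 min compound incubation. Current amplitudes were compared.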

[2] = target: hROMK (hKir1.1) (Homo sapiens (Human), UniProt P48048); experiment: Thallium Flux Assay (ROMK channel functional thallium flux, FLIPR-Tetra); type: cell-based; conditions: read-out: Thallium Flux IC50
How it was run: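 HEK293 cells stably expressing hROMK loaded with FluxOR dye for 90 min, then incubated with compound for 30 min at 23-25 °C. Normalized to a 3 μM standard ROMK inhibitor as % fluorescence change.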

[3] = Chinese hamster ovary cells stably expressing Kir1.1, read-out: Electrophysiology IC50
[4] = Electrophysiology IC50, Chinese hamster ovary cells stably expressing Kir1.1
[5] = HEK293 cells stably expressing hROMK (hKir1.1)

hROMK (hKir1.1), sequence (P48048 whole entry): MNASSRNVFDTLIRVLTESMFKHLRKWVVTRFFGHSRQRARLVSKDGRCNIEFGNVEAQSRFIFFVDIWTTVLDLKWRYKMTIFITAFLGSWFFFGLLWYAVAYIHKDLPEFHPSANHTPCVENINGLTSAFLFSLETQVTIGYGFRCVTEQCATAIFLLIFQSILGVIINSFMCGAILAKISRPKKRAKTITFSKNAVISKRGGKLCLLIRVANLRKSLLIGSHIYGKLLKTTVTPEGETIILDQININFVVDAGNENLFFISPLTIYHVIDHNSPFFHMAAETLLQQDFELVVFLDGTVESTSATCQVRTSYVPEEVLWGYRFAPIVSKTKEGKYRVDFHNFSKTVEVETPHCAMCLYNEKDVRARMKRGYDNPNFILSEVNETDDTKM
Kir1.1 (ROMK1), sequence (P48048 whole entry): as above

Row | Structure (SMILES) | IC50 [1, 3] [nM] | IC50 [2] [nM] | IC50 [1, 4] [nM] | IC50 [2, 5] [nM]
1 | O=C1OCCc2cc([C@@H]3CN4CCN(C(=O)Cc5ccc(-n6cnnn6)cc5)C[C@H]4CO3)ccc21 [Example 15, 6-[(3R,9aS)-8-{[4-(1H-tetrazol-1-yl)phenyl]acetyl}octahydropyrazino[2,1-c][1,4]oxazin-3-yl]-3,4-dihydro-1H-isochromen-1-one] | 80 | 50 |  | 
2 | Cc1c([C@@H]2CN3CCN(C(=O)Cc4cc(F)c(-n5cnnn5)cc4F)C[C@H]3CO2)ccc(F)c1C#N [Example 55, 3-[(3R,9aS)-8-{[2,5-difluoro-4-(1H-tetrazol-1-yl)phenyl]acetyl}octahydropyrazino[2,1-c][1,4]oxazin-3-yl]-6-fluoro-2-methylbenzonitrile] |  |  | 100 | 130
3 | Cc1c([C@@H]2CN3CCN(C(=O)Cc4ccc(-n5cnnn5)cc4)C[C@H]3CN2)ccc(F)c1C#N [Example 99, 3-((3R,9aR)-8-(2-(4-(1H-tetrazol-1-yl)phenyl)acetyl)octahydro-1H-pyrazino[1,2-a]pyrazin-3-yl)-6-fluoro-2-methylbenzonitrile] | 180 |  |  | 70
4 | Cc1c([C@@H]2CN3CCN(C(=O)C4CCCc5cc(-n6cnnn6)ccc54)C[C@H]3CO2)ccc2c1COC2=O (single isomer, unassigned) [Example 89] | 460 |  |  | 490
5 | Cc1c([C@H]2CN3CCN(C(=O)C4CCc5cc(-n6cnnn6)ccc54)C[C@H]3CO2)ccc(F)c1C#N (single isomer, unassigned) [Example 98] | 140 |  |  | 170
6 | COc1cc(CC(=O)N2CCN3C[C@@H](c4ccc5c(c4)CCOC5=O)OC[C@@H]3C2)c(F)cc1C#N [Example 30, 5-fluoro-2-methoxy-4-{2-oxo-2-[(3R,9aS)-3-(1-oxo-3,4-dihydro-1H-isochromen-6-yl)hexahydropyrazino[2,1-c][1,4]oxazin-8(1H)-yl]ethyl}benzonitrile] |  |  | 110 | 100
7 | Cc1c([C@@H]2CN3CCN(C(=O)Cc4cccc(-n5cnnn5)c4)C[C@@H]3CO2)ccc(F)c1C#N [Example 56, 6-fluoro-2-methyl-3-[(3R,9aR)-8-{[3-(1H-tetrazol-1-yl)phenyl]acetyl}octahydropyrazino[2,1-c][1,4]oxazin-3-yl]benzonitrile] | 60 |  |  | 200
8 | Cc1c(C#N)cccc1[C@H]1CN2CCN(C(=O)Cc3ccc(-n4cnnn4)cc3)C[C@H]2CO1 [Example 43, 2-methyl-3-[(3S,9aS)-8-{[4-(1H-tetrazol-1-yl)phenyl]acetyl}octahydropyrazino[2,1-c][1,4]oxazin-3-yl]benzonitrile] | 170 |  |  | 140
9 | Cc1c([C@H]2CN3CCN(C(=O)Cc4ccc(-n5cnnn5)cc4)C[C@@H]3CO2)ccc2c1COC2=O [Example 14, 4-methyl-5-[(3S,9aR)-8-{[4-(1H-tetrazol-1-yl)phenyl]acetyl}octahydropyrazino[2,1-c][1,4]oxazin-3-yl]-2-benzofuran-1(3H)-one] |  |  | 140 | 110
10 | Cc1c([C@H]2CN3CCN(C(=O)Cc4ccc(-n5cnnn5)cc4)C[C@H]3CN2)ccc(F)c1C#N [Example 101] |  |  | 50 | 60
11 | O=C1OCCc2cc([C@@H]3CN4CCN(C(=O)C5CCCc6cc(-n7cnnn7)ccc65)C[C@H]4CO3)ccc21 (single isomer, unassigned) [Example 90] | 260 |  |  | 430
12 | COc1c([C@H]2CN3CCN(C(=O)Cc4ccc(-n5cnnn5)cc4)C[C@H]3CO2)ccc(F)c1C#N [Example 33, 6-fluoro-2-methoxy-3-[(3S,9aS)-8-{[4-(1H-tetrazol-1-yl)phenyl]acetyl}octahydropyrazino[2,1-c][1,4]oxazin-3-yl]benzonitrile] |  |  | 130 | 110
13 | Cc1c([C@@H]2CN3CCN(C(=O)Cc4ccc(-n5cnnn5)cc4)C[C@H]3CO2)ccc(Cl)c1C#N [Example 34, 6-chloro-2-methyl-3-[(3R,9aS)-8-{[4-(1H-tetrazol-1-yl)phenyl]acetyl}octahydropyrazino[2,1-c][1,4]oxazin-3-yl]benzonitrile] |  |  | 200 | 190
14 | Cc1c([C@H]2CN3CCN(C(=O)Cc4cc(-n5cnnn5)ccc4F)C[C@@H]3CO2)ccc(F)c1C#N [Example 58, 6-fluoro-3-[(3S,9aR)-8-{[2-fluoro-5-(1H-tetrazol-1-yl)phenyl]acetyl}octahydropyrazino[2,1-c][1,4]oxazin-3-yl]-2-methylbenzonitrile] | 80 |  |  | 180
15 | C[C@@H]1Cc2cc([C@@H]3CN4CCN(C(=O)Cc5ccc(-n6cnnn6)cc5)C[C@H]4CN3)ccc2C(=O)O1 [Example 104] |  |  | 380 | 290
16 | Cc1c([C@H]2CN3CCN(C(=O)Cc4ccc(-n5cnnn5)cc4)C[C@H]3CO2)ccc(Cl)c1C#N [Example 35, 6-chloro-2-methyl-3-[(3S,9aS)-8-{[4-(1H-tetrazol-1-yl)phenyl]acetyl}octahydropyrazino[2,1-c][1,4]oxazin-3-yl]benzonitrile] |  |  | 260 | 760
17 | COc1cc(CC(=O)N2CCN3C[C@H](c4ccc5c(c4)CCOC5=O)OC[C@H]3C2)c(F)cc1C#N [Example 31, 5-fluoro-2-methoxy-4-{2-oxo-2-[(3S,9aR)-3-(1-oxo-3,4-dihydro-1H-isochromen-6-yl)hexahydropyrazino[2,1-c][1,4]oxazin-8(1H)-yl]ethyl}benzonitrile] |  |  | 120 | 570
18 | Cc1c([C@@H]2CN3CCN(C(=O)Cc4cc(F)c(-n5cnnn5)cc4F)C[C@@H]3CO2)ccc(F)c1C#N [Example 54, 3-[(3R,9aR)-8-{[2,5-difluoro-4-(1H-tetrazol-1-yl)phenyl]acetyl}octahydropyrazino[2,1-c][1,4]oxazin-3-yl]-6-fluoro-2-methylbenzonitrile] |  | 100 | 100 | 
19 | O=C(C1CCc2cc(-n3cnnn3)ccc21)N1CCN2C[C@@H](c3cccc(-n4cnnn4)c3)OC[C@@H]2C1 (single isomer, unassigned) [Example 80] | 280 |  |  | 130
20 | Cc1c([C@H]2CN3CCN(C(=O)Cc4ccc(-n5cnnn5)cc4)C[C@H]3CO2)ccc2nonc12 [Example 75, (3S,9aS)-3-(4-methyl-2,1,3-benzoxadiazol-5-yl)-8-{[4-(1H-tetrazol-1-yl)phenyl]acetyl}octahydropyrazino[2,1-c][1,4]oxazine] | 120 |  |  | 210
21 | COc1ccc([C@@H]2CN3CCN(C(=O)C4CCc5cc(-n6cnnn6)ccc54)C[C@H]3CO2)c(C)c1C#N (stereo partly drawn) [Example 63, 6-methoxy-2-methyl-3-[(3R,9aS)-8-{[5-(1H-tetrazol-1-yl)-2,3-dihydro-1H-inden-1-yl]carbonyl}octahydropyrazino[2,1-c][1,4]oxazin-3-yl]benzonitrile] | 450 |  |  | 180
22 | Cc1c([C@@H]2CN3CCN(C(=O)C(C)c4ccc(-n5cnnn5)cc4)C[C@H]3CO2)ccc(F)c1C#N (stereo partly drawn) [Example 45, 6-fluoro-2-methyl-3-[(3R,9aS)-8-{2-[4-(1H-tetrazol-1-yl)phenyl]propanoyl}octahydropyrazino[2,1-c][1,4]oxazin-3-yl]benzonitrile] | 210 |  |  | 330
23 | Cc1c([C@@H]2CN3CCN(C(=O)Cc4cccc(-n5cnnn5)c4)C[C@H]3CO2)ccc(F)c1C#N [Example 47, 6-fluoro-2-methyl-3-[(3R,9aS)-8-{[3-(1H-tetrazol-1-yl)phenyl]acetyl}octahydropyrazino[2,1-c][1,4]oxazin-3-yl]benzonitrile] | 90 |  |  | 300
24 | Cc1c([C@H]2CN3CCN(C(=O)Cc4ccc5c(c4)COC5=O)C[C@H]3CO2)ccc(F)c1C#N [Example 23, 6-fluoro-2-methyl-3-{(3S,9aS)-8-[(1-oxo-1,3-dihydro-2-benzofuran-5-yl)acetyl]octahydropyrazino[2,1-c][1,4]oxazin-3-yl}benzonitrile] |  | 70 | 70 | 
25 | COc1cc([C@H]2CN3CCN(C(=O)C4CCc5cc(-n6cnnn6)ccc54)C[C@H]3CO2)ccc1C#N (mixture of isomers) [Example 66, 2-methoxy-4-[(3S,9aS)-8-{[5-(1H-tetrazol-1-yl)-2,3-dihydro-1H-inden-1-yl]carbonyl}octahydropyrazino[2,1-c][1,4]oxazin-3-yl]benzonitrile] | 490 |  |  | 370
26 | COc1cc([C@@H]2CN3CCN(C(=O)Cc4ccc(-n5cnnn5)cc4)C[C@@H]3CO2)ccc1C#N [Example 19, 2-methoxy-4-[(3R,9aR)-8-{[4-(1H-tetrazol-1-yl)phenyl]acetyl}octahydropyrazino[2,1-c][1,4]oxazin-3-yl]benzonitrile] |  |  | 70 | 170
27 | Cc1c([C@H]2CN3CCN(C(=O)C4CCCc5cc(-n6cnnn6)ccc54)C[C@H]3CO2)csc1C#N (single isomer, unassigned) [Example 97] | 280 |  |  | 620
28 | Cc1c(C2CN3CCCN(C(=O)Cc4ccc(-n5cnnn5)cc4)CC3CO2)ccc2c1COC2=O (centres unmarked) [Example 50, 4-methyl-5-(9-{[4-(1H-tetrazol-1-yl)phenyl]acetyl}octahydro-1H-[1,4]oxazino[4,3-a][1,4]diazepin-3-yl)-2-benzofuran-1(3H)-one] |  |  | 180 | 740

Reference: patent publication US9573961B2, “Inhibitors of the renal outer medullary potassium channel” (Merck Sharp & Dohme Corp., priority 2012, dated 2017)
